Our source for the IC50 values is patent publication US20240366598A1, “GLUCOSE-DEPENDENT INSULINOTROPIC POLYPEPTIDE RECEPTOR ANTAGONISTS AND USES THEREOF” (Pfizer Inc., priority 2023, published 2024).

For this assay, the target named is T1, human Glucose-dependent Insulinotropic Polypeptide Receptor (hGIPR) (Homo sapiens, UniProt P48546).
T1 sequence (P48546 22-466): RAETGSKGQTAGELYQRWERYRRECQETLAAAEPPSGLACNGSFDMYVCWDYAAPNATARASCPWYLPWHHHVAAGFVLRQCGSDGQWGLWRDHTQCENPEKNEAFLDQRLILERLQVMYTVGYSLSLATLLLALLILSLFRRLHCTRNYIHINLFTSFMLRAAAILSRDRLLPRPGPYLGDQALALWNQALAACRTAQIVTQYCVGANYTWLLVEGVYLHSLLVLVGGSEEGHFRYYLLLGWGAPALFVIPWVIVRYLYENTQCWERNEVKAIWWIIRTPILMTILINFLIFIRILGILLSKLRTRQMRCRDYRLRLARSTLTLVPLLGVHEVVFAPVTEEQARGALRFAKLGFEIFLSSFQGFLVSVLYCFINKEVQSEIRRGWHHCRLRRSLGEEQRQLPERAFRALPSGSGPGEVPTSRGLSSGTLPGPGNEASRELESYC
Nature of the assay: Functional in vitro GIPR antagonist potency assay (cAMP HTRF, CHO-K1 cells stably expressing hGIPR, hGIP stimulation at about EC80). The assay is classed as cell-based. Particulars: geometric mean, hGIP at estimated EC80, examples marked ^2: overall geometric mean of multiple forms (including salts) tested. The gist of the method: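 HTRF quantification of cAMP after stimulation with hGIP at an estimated EC80 for 30 min at 37 °C. Before stimulation, hGIPR-expressing CHO-K1 cells were exposed 2 h to test compound in IBMX-containing buffer, with 0.5% DMSO final. Percent effect is referenced to agonist alone (0%) and to 80 μM of a reference antagonist (100%), and runs required the agonist concentration to fall within the on-the-day EC50–EC90.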
In the case of `Cc1cc(NC(=O)N2CCC[C@@H]2C(=O)Nc2ccc(-c3cccc(C(=O)O)c3)cn2)ccc1C(F)(F)F` [Example 175, 3-{6-[(1-{[3-methyl-4-(trifluoromethyl)phenyl]carbamoyl}-D-prolyl)amino]pyridin-3-yl}benzoic acid], the IC50 (in general, the concentration at which inhibition is half-maximal) is 8.3 nM.
Next, `Cc1cc(C(=O)O)ccc1-c1ccc(NC(=O)[C@H]2CCCN2C(=O)Nc2ccc(C(C)C)c(F)c2)nc1` [Example 176, 4-{6-[(1-{[3-fluoro-4-(propan-2-yl)phenyl]carbamoyl}-D-prolyl)amino]pyridin-3-yl}-3-methylbenzoic acid]: 11 nM; `Cc1cc(NC(=O)N2CCC[C@@H]2C(=O)Nc2ccc(-c3ccc(C(=O)O)cc3)cn2)ccc1C(F)(F)F` [Example 177, 4-{6-[(1-{[3-methyl-4-(trifluoromethyl)phenyl]carbamoyl}-D-prolyl)amino]pyridin-3-yl}benzoic acid]: 8.2 nM; `O=C(O)c1ccc(-c2ccc(NC(=O)[C@H]3CCCN3C(=O)Nc3ccc(C4(C(F)(F)F)CC4)cc3)nc2)cc1` [Example 178, 4-(6-{[1-({4-[1-(trifluoromethyl)cyclopropyl]phenyl}carbamoyl)-D-prolyl]amino}pyridin-3-yl)benzoic acid]: 11 nM.
Then `Cc1cc(NC(=O)N2CCC[C@@H]2C(=O)Nc2ccc(-c3ccc(C(=O)O)cc3)cn2)ccc1C1CC1` [Example 179, 4-[6-({1-[(4-cyclopropyl-3-methylphenyl)carbamoyl]-D-prolyl}amino)pyridin-3-yl]benzoic acid], with 3.7 nM; and `Cc1cc(NC(=O)N2CCC[C@@H]2C(=O)Nc2ccc(-c3ccc(C(=O)O)cn3)cc2)ccc1C(C)C` [Example 180, 6-{4-[(1-{[3-methyl-4-(propan-2-yl)phenyl]carbamoyl}-D-prolyl)amino]phenyl}pyridine-3-carboxylic acid], with 53 nM; and `O=C(O)c1cccc(-c2ccc(NC(=O)[C@H]3CCCN3C(=O)Nc3ccc(C(F)(F)F)cc3)nc2)c1` [Example 181, 3-{6-[(1-{[4-(trifluoromethyl)phenyl]carbamoyl}-D-prolyl)amino]pyridin-3-yl}benzoic acid], with 24 nM.
Next, `CC(C)c1ccc(NC(=O)N2CCC[C@@H]2C(=O)Nc2ccc(-c3ccc(C(=O)O)cn3)cc2)cc1F` [Example 182, 6-{4-[(1-{[3-fluoro-4-(propan-2-yl)phenyl]carbamoyl}-D-prolyl)amino]phenyl}pyridine-3-carboxylic acid]: 23 nM; `Cc1cc(NC(=O)N2CCC[C@@H]2C(=O)Nc2ccc(-c3cccc(C(=O)O)c3)cn2)ccc1C(C)C` [Example 183, 3-{6-[(1-{[3-methyl-4-(propan-2-yl)phenyl]carbamoyl}-D-prolyl)amino]pyridin-3-yl}benzoic acid]: 9.3 nM; `Cc1cc(NC(=O)N2CCC[C@@H]2C(=O)Nc2ccc(-c3cccc(C(=O)O)c3)cn2)ncc1C(C)C` [Example 184, 3-{6-[(1-{[4-methyl-5-(propan-2-yl)pyridin-2-yl]carbamoyl}-D-prolyl)amino]pyridin-3-yl}benzoic acid]: 43 nM.
For `Cc1cc(-c2ccc(NC(=O)[C@H]3CCCN3C(=O)Nc3ccc(C(C)C)c(C)c3)nc2)ccc1C(=O)O` [Example 185, 2-methyl-4-{6-[(1-{[3-methyl-4-(propan-2-yl)phenyl]carbamoyl}-D-prolyl)amino]pyridin-3-yl}benzoic acid], the IC50 is 4.2 nM.
Turning to `Cc1cc(NC(=O)N2CCC[C@@H]2C(=O)Nc2ccc(-c3ccc(C(=O)O)c(F)c3)cn2)ccc1C(F)(F)F` [Example 186, 2-fluoro-4-{6-[(1-{[3-methyl-4-(trifluoromethyl)phenyl]carbamoyl}-D-prolyl)amino]pyridin-3-yl}benzoic acid], the IC50 was 36 nM.
Next, `Cc1cc(NC(=O)N2CCC[C@@H]2C(=O)Nc2ccc(-c3ccc(C(=O)O)c(F)c3)cn2)ccc1C(C)C` [Example 187, 2-fluoro-4-{6-[(1-{[3-methyl-4-(propan-2-yl)phenyl]carbamoyl}-D-prolyl)amino]pyridin-3-yl}benzoic acid]: 51 nM; `O=C(O)c1cccc(-c2ccc(NC(=O)[C@H]3CCCN3C(=O)Nc3ccc(Cl)c(C(F)(F)F)c3)nc2)c1` [Example 188, 3-{6-[(1-{[4-chloro-3-(trifluoromethyl)phenyl]carbamoyl}-D-prolyl)amino]pyridin-3-yl}benzoic acid]: 32 nM; `CC(C)c1ccc(CNC(=O)N2CCC[C@@H]2C(=O)Nc2ccc(-c3ccc(C(=O)O)c(F)c3)cn2)cc1` [Example 189, 2-fluoro-4-(6-{[1-({[4-(propan-2-yl)phenyl]methyl}carbamoyl)-D-prolyl]amino}pyridin-3-yl)benzoic acid]: 42 nM.
Then `Cc1cc(-c2ccc(NC(=O)[C@H]3CCCN3C(=O)NCc3ccc(C(F)(F)F)c(F)c3)nc2)ccc1C(=O)O` [Example 190, 4-(6-{[1-({[3-fluoro-4-(trifluoromethyl)phenyl]methyl}carbamoyl)-D-prolyl]amino}pyridin-3-yl)-2-methylbenzoic acid], with 9.9 nM; and `Cc1cc(-c2ccc(NC(=O)[C@H]3CCCN3C(=O)NCc3ccc(C(C)C)cc3)nc2)ccc1C(=O)O` [Example 191, 2-methyl-4-(6-{[1-{{[4-(propan-2-yl)phenyl]methyl}carbamoyl)-D-prolyl]amino}pyridin-3-yl)benzoic acid], with 14 nM.
Then `Cc1cc(-c2ccc(NC(=O)[C@H]3CCCN3C(=O)NCc3ccc(C(F)(F)F)cc3)nc2)ccc1C(=O)O` [Example 192, 2-methyl-4-(6-{[1-({[4-(trifluoromethyl)phenyl]methyl}carbamoyl)-D-prolyl]amino}pyridin-3-yl)benzoic acid], with 12 nM; and `O=C(O)c1ccc(-c2ncc(NC(=O)[C@H]3CCCN3C(=O)Nc3ccc(C(F)(F)F)cc3)cc2F)cc1` [Example 193, 4-{3-fluoro-5-[(1-{[4-(trifluoromethyl)phenyl]carbamoyl}-D-prolyl)amino]pyridin-2-yl}benzoic acid], with 17 nM; and `CC(C)c1ccc(NC(=O)N2CCC[C@@H]2C(=O)Nc2ccc(-c3ccc(C(=O)O)cc3)nc2)cc1F` [Example 194, 4-{5-[(1-{[3-fluoro-4-(propan-2-yl)phenyl]carbamoyl}-D-prolyl)amino]pyridin-2-yl}benzoic acid], with 14 nM.
For the compound `O=C(O)c1ccc(-c2ccc(NC(=O)[C@H]3CCCN3C(=O)NCc3ccc(C(F)(F)F)cc3)cc2)cn1` [Example 195, 5-(4-{[1-({[4-(trifluoromethyl)phenyl]methyl}carbamoyl)-D-prolyl]amino}phenyl)pyridine-2-carboxylic acid], the IC50 is 35 nM.
Then `O=C(O)c1ccc(-c2ccc(NC(=O)[C@H]3CCCN3C(=O)Nc3ccc(C(F)(F)F)cc3)cc2)cn1` [Example 196, 5-{4-[(1-{[4-(trifluoromethyl)phenyl]carbamoyl}-D-prolyl)amino]phenyl}pyridine-2-carboxylic acid], with 49 nM; and `O=C(O)c1ccc(-c2ccc(NC(=O)[C@H]3CCCN3C(=O)Nc3ccc(C4(C(F)(F)F)CC4)cc3)cc2)cn1` [Example 197, 5-(4-{[1-({4-[1-(trifluoromethyl)cyclopropyl]phenyl}carbamoyl)-D-prolyl]amino}phenyl)pyridine-2-carboxylic acid], with 29 nM.
Next, `Cc1cc(NC(=O)N2CCC[C@@H]2C(=O)Nc2ccc(-c3ccc(C(=O)O)cc3)nc2)ncc1C(C)C` [Example 198, 4-{5-[(1-{[4-methyl-5-(propan-2-yl)pyridin-2-yl]carbamoyl}-D-prolyl)amino]pyridin-2-yl}benzoic acid]: 69 nM; `CC(C)c1ccc(NC(=O)N2CCC[C@@H]2C(=O)Nc2ccc(-c3ccc(C(=O)O)c(F)c3)cn2)cc1` [Example 199, 2-fluoro-4-{6-[(1-{[4-(propan-2-yl)phenyl]carbamoyl}-D-prolyl)amino]pyridin-3-yl}benzoic acid]: 71 nM.
Next, `Cc1cc(-c2ccc(NC(=O)[C@H]3CCCN3C(=O)Nc3ccc(C(C)C)cc3)nc2)ccc1C(=O)O` [Example 200, 2-methyl-4-{6-[(1-{[4-(propan-2-yl)phenyl]carbamoyl}-D-prolyl)amino]pyridin-3-yl}benzoic acid]: 9.9 nM; `Cc1cc(NC(=O)N2CCC[C@@H]2C(=O)Nc2ccc(-c3ccc(C(=O)O)nc3)cn2)ccc1C(C)C` [Example 201, ammonium 6′-[(1-{[3-methyl-4-(propan-2-yl)phenyl]carbamoyl}-D-prolyl)amino][3,3′-bipyridine]-6-carboxylate]: 91 nM; `Cc1cc(NC(=O)N2CCC[C@@H]2C(=O)Nc2ccc(-c3cccc(C(=O)O)c3)cn2)ncc1C(F)(F)F` [Example 202, 3-{6-[(1-{[4-methyl-5-(trifluoromethyl)pyridin-2-yl]carbamoyl}-D-prolyl)amino]pyridin-3-yl}benzoic acid]: 22 nM.
For `Cc1cc(NC(=O)N2CCC[C@@H]2C(=O)Nc2ccc(-c3ccc(C(=O)O)cc3)cc2)ncc1C(F)(F)F` [Example 203, 4′-[(1-{[4-methyl-5-(trifluoromethyl)pyridin-2-yl]carbamoyl}-D-prolyl)amino][1,1′-biphenyl]-4-carboxylic acid], the IC50 was 8.4 nM.
